Assay results published in article PMC10609013, “Solubility and Thermodynamic Analysis of Isotretinoin in Different (DMSO + Water) Mixtures” (Molecules, 2023).
Several values for one entry are separate records, joined by “and”; a condition that tells them apart may be missing. Identical values can stand only once.

Test: Shake flask solubility of ITN in {DMSO (1) + H2O (2)} mixes, HPLC
Format: physicochemical
Conditions: 101.1 kPa
Protocol: A series of {DMSO (1) + H2O (2)} solutions, with DMSO mass percentages ranging from 0.10 to 0.90, was examined. Three replicates of each {DMSO (1) + H2O (2)} combination were taken. ITN’s mole fraction solubility versus mass fraction of DMSO (m = 0.0–1.0) and neat DMSO and H2O was measured using a shake flask approach at 298.2–318.2 K and 101.1 kPa. In essence, the known amounts of each {DMSO (1) + H2O (2)} combination and neat DMSO and H2O were combined with extra ITN crystals in triplicate. The equilibrium was achieved by saturating the resultant mixes in a WiseBath® WSB shaking water bath (Model WSB-18/30/-45, Daihan Scientific Co. Ltd., Seoul, Korea) at a shaking speed of 100 rpm for 72 h. In order to evaluate the equilibrium time, the preliminary experiments were performed at different time intervals. […] The saturated solutions were again removed from the shaker after they had reached equilibrium and centrifuged for 30 min at 5000 rpm. A previously established environmentally friendly HPLC method was used to assess the ITN content after the supernatants were isolated and diluted (as required). The identification of ITN was carried out via a Nucleodur (dimensions: 150 mm × 4.6 mm and particle size: 5 μm) reversed-phase C18 analytical column at 298.2 K. The environmentally friendly mobile used was a binary mixture of ethyl acetate and ethanol (50:50% v v^−1). The mobile phase was delivered with a flow speed of 1 mL min^−1. The ITN measurements were performed at a wavelength of 354 nm. The sample volume was 20 μL, which was injected using a Waters autosampler. The Analytical GREEnness (AGREE) score was determined to evaluate the eco-friendliness nature of the HPLC method. The AGREE score was predicted to be 0.76 for the present HPLC method, indicating the eco-friendly nature of the HPLC method. ITN mole fraction solubilities (xe) were calculated using their standard formulae described in our previous work.

CC1=C(/C=C/C(C)=C/C=C/C(C)=C\C(=O)O)C(C)(C)CCC1 [ITN, isotretinoin]
xe experimental solubility (DMSO mass fraction m = 0.2, T = 298.2 K): 3.83 (0.08) × 10^−6 mole fraction
xe experimental solubility (DMSO mass fraction m = 0.2, T = 303.2 K): 5.28 (0.17) × 10^−6 mole fraction
xe experimental solubility (DMSO mass fraction m = 0.2, T = 308.2 K): 7.87 (0.21) × 10^−6 mole fraction
xe experimental solubility (DMSO mass fraction m = 0.2, T = 313.2 K): 1.10 (0.01) × 10^−5 mole fraction
xe experimental solubility (DMSO mass fraction m = 0.2, T = 318.2 K): 1.42 (0.02) × 10^−5 mole fraction
xe experimental solubility (DMSO mass fraction m = 0.3, T = 298.2 K): 1.36 (0.01) × 10^−5 mole fraction
xe experimental solubility (DMSO mass fraction m = 0.3, T = 303.2 K): 1.82 (0.03) × 10^−5 mole fraction
xe experimental solubility (DMSO mass fraction m = 0.3, T = 308.2 K): 2.57 (0.04) × 10^−5 mole fraction
xe experimental solubility (DMSO mass fraction m = 0.3, T = 313.2 K): 3.43 (0.06) × 10^−5 mole fraction
xe experimental solubility (DMSO mass fraction m = 0.3, T = 318.2 K): 4.29 (0.07) × 10^−5 mole fraction
xe experimental solubility (DMSO mass fraction m = 0.4, T = 298.2 K): 4.68 (0.07) × 10^−5 mole fraction
xe experimental solubility (DMSO mass fraction m = 0.4, T = 303.2 K): 6.06 (0.08) × 10^−5 mole fraction
xe experimental solubility (DMSO mass fraction m = 0.4, T = 308.2 K): 8.23 (0.10) × 10^−5 mole fraction
xe experimental solubility (DMSO mass fraction m = 0.4, T = 313.2 K): 1.08 (0.01) × 10^−4 mole fraction
xe experimental solubility (DMSO mass fraction m = 0.4, T = 318.2 K): 1.32 (0.02) × 10^−4 mole fraction
xe experimental solubility (DMSO mass fraction m = 0.5, T = 298.2 K): 1.65 (0.04) × 10^−4 mole fraction
xe experimental solubility (DMSO mass fraction m = 0.5, T = 303.2 K): 2.05 (0.05) × 10^−4 mole fraction
xe experimental solubility (DMSO mass fraction m = 0.5, T = 308.2 K): 2.69 (0.06) × 10^−4 mole fraction
xe experimental solubility (DMSO mass fraction m = 0.5, T = 313.2 K): 3.31 (0.07) × 10^−4 mole fraction
xe experimental solubility (DMSO mass fraction m = 0.5, T = 318.2 K): 3.96 (0.08) × 10^−4 mole fraction
xe experimental solubility (DMSO mass fraction m = 0.6, T = 298.2 K): 5.70 (0.10) × 10^−4 mole fraction
xe experimental solubility (DMSO mass fraction m = 0.6, T = 303.2 K): 6.88 (0.12) × 10^−4 mole fraction
xe experimental solubility (DMSO mass fraction m = 0.6, T = 308.2 K): 8.57 (0.17) × 10^−4 mole fraction
xe experimental solubility (DMSO mass fraction m = 0.6, T = 313.2 K): 1.08 (0.01) × 10^−3 mole fraction
xe experimental solubility (DMSO mass fraction m = 0.6, T = 318.2 K): 1.22 (0.02) × 10^−3 mole fraction
xe experimental solubility (DMSO mass fraction m = 0.7, T = 298.2 K): 2.02 (0.03) × 10^−3 mole fraction
xe experimental solubility (DMSO mass fraction m = 0.7, T = 303.2 K): 2.33 (0.05) × 10^−3 mole fraction
xe experimental solubility (DMSO mass fraction m = 0.7, T = 308.2 K): 2.79 (0.06) × 10^−3 mole fraction
xe experimental solubility (DMSO mass fraction m = 0.7, T = 313.2 K): 3.24 (0.07) × 10^−3 mole fraction
xe experimental solubility (DMSO mass fraction m = 0.7, T = 318.2 K): 3.66 (0.08) × 10^−3 mole fraction
xe experimental solubility (DMSO mass fraction m = 0.8, T = 298.2 K): 6.97 (0.10) × 10^−3 mole fraction
xe experimental solubility (DMSO mass fraction m = 0.8, T = 303.2 K): 7.81 (0.12) × 10^−3 mole fraction
xe experimental solubility (DMSO mass fraction m = 0.8, T = 308.2 K): 8.96 (0.20) × 10^−3 mole fraction
xe experimental solubility (DMSO mass fraction m = 0.8, T = 313.2 K): 1.02 (0.01) × 10^−2 mole fraction
xe experimental solubility (DMSO mass fraction m = 0.8, T = 318.2 K): 1.15 (0.01) × 10^−2 mole fraction
xe experimental solubility (DMSO mass fraction m = 0.9, T = 298.2 K): 2.44 (0.02) × 10^−2 mole fraction
xe experimental solubility (DMSO mass fraction m = 0.9, T = 303.2 K): 2.66 (0.03) × 10^−2 mole fraction
xe experimental solubility (DMSO mass fraction m = 0.9, T = 308.2 K): 2.86 (0.03) × 10^−2 mole fraction
xe experimental solubility (DMSO mass fraction m = 0.9, T = 313.2 K): 3.19 (0.04) × 10^−2 mole fraction
xe experimental solubility (DMSO mass fraction m = 0.9, T = 318.2 K): 3.39 (0.05) × 10^−2 mole fraction
xe experimental solubility (DMSO mass fraction m = 1.0, T = 298.2 K): 8.47 (0.10) × 10^−2 mole fraction
xe experimental solubility (DMSO mass fraction m = 1.0, T = 303.2 K): 8.88 (0.11) × 10^−2 mole fraction
xe experimental solubility (DMSO mass fraction m = 1.0, T = 308.2 K): 9.31 (0.12) × 10^−2 mole fraction
xe experimental solubility (DMSO mass fraction m = 1.0, T = 313.2 K): 9.80 (0.13) × 10^−2 mole fraction
xe experimental solubility (DMSO mass fraction m = 1.0, T = 318.2 K): 1.02 × 10^−1 mole fraction and 1.02 (0.01) × 10^−1 mole fraction
